In the NIST ThermoML archive (doi:10.1021/je900596d):

Conditions: for mass density: Vibrating tube method

FC(F)=C(F)C(F)(F)F [hexafluoropropene]
Conditions	mass density [kg/m3]	vapor or sublimation pressure [kPa]
348.16 K, 3450.8 kPa, Liquid	1027.09	–
348.16 K, 3473.5 kPa, Liquid	1028.21	–
348.16 K, 3495.4 kPa, Liquid	1029.31	–
348.16 K, 3556 kPa, Liquid	1032.19	–
348.16 K, 3620.1 kPa, Liquid	1035.16	–
348.16 K, 3683.5 kPa, Liquid	1037.98	–
348.16 K, 3748.1 kPa, Liquid	1040.81	–
348.16 K, 3811.8 kPa, Liquid	1043.57	–
348.16 K, 3875.5 kPa, Liquid	1046.1	–
348.16 K, 4030.8 kPa, Liquid	1052.17	–
348.16 K, 4092 kPa, Liquid	1054.62	–
348.16 K, 4154 kPa, Liquid	1057.08	–
348.16 K, 4217.2 kPa, Liquid	1059.37	–
348.16 K, 4278.7 kPa, Liquid	1061.59	–
348.16 K, 4339.9 kPa, Liquid	1063.83	–
348.16 K, 4402.1 kPa, Liquid	1065.77	–
348.16 K, 4464.2 kPa, Liquid	1067.89	–
348.16 K, 4526 kPa, Liquid	1070.05	–
348.16 K, 4587.8 kPa, Liquid	1072.01	–
348.16 K, 4650.2 kPa, Liquid	1074.03	–
348.16 K, 4713.9 kPa, Liquid	1075.88	–
348.16 K, 4776 kPa, Liquid	1077.88	–
348.16 K, 4837.4 kPa, Liquid	1079.66	–
348.16 K, 4898.5 kPa, Liquid	1081.71	–
348.16 K, 4959.8 kPa, Liquid	1083.32	–
348.16 K, 5022.6 kPa, Liquid	1085.31	–
348.16 K, 5083.3 kPa, Liquid	1086.88	–
348.16 K, 5144.8 kPa, Liquid	1088.55	–
348.16 K, 5206 kPa, Liquid	1090.21	–
348.16 K, 5267.2 kPa, Liquid	1091.82	–
348.16 K, 5329.1 kPa, Liquid	1093.58	–
348.16 K, 5389.3 kPa, Liquid	1095.16	–
348.16 K, 5451.8 kPa, Liquid	1096.85	–
348.16 K, 5513.3 kPa, Liquid	1098.5	–
348.16 K, 5576.7 kPa, Liquid	1100.15	–
348.16 K, 5638.9 kPa, Liquid	1101.65	–
348.16 K, 5701.8 kPa, Liquid	1103.22	–
348.16 K, 5762.2 kPa, Liquid	1104.69	–
348.16 K, 5825.1 kPa, Liquid	1106.21	–
348.16 K, 5886.9 kPa, Liquid	1107.77	–
348.16 K, 5948.2 kPa, Liquid	1109.1	–
348.16 K, 6012.5 kPa, Liquid	1110.68	–
348.16 K, 6074.1 kPa, Liquid	1112.14	–
348.16 K, 6135.8 kPa, Liquid	1113.56	–
348.16 K, 6199.8 kPa, Liquid	1114.99	–
348.16 K, 6262.2 kPa, Liquid	1116.4	–
348.16 K, 6326.8 kPa, Liquid	1117.78	–
348.16 K, 6392.4 kPa, Liquid	1119.12	–
348.16 K, 6456 kPa, Liquid	1120.57	–
348.16 K, 6517.7 kPa, Liquid	1121.84	–
348.16 K, 6581 kPa, Liquid	1123.2	–
348.16 K, 6643.4 kPa, Liquid	1124.53	–
348.16 K, 6706.3 kPa, Liquid	1125.82	–
348.16 K, 6767.7 kPa, Liquid	1127.07	–
348.16 K, 6830.9 kPa, Liquid	1128.32	–
348.16 K, 6893 kPa, Liquid	1129.63	–
348.16 K, 6955.9 kPa, Liquid	1130.87	–
348.16 K, 7017.5 kPa, Liquid	1132.05	–
348.16 K, 7142.8 kPa, Liquid	1134.61	–
348.16 K, 7205.4 kPa, Liquid	1135.79	–
348.16 K, 7269.5 kPa, Liquid	1136.95	–
348.16 K, 7332.4 kPa, Liquid	1138.09	–
348.16 K, 7396.2 kPa, Liquid	1139.31	–
348.16 K, 7458.5 kPa, Liquid	1140.53	–
348.16 K, 7521.9 kPa, Liquid	1141.64	–
348.16 K, 7584.8 kPa, Liquid	1142.73	–
348.16 K, 7646.8 kPa, Liquid	1143.93	–
348.16 K, 7707.9 kPa, Liquid	1145.12	–
348.16 K, 7771.4 kPa, Liquid	1146.25	–
348.16 K, 7835.4 kPa, Liquid	1147.35	–
348.16 K, 7897.7 kPa, Liquid	1148.36	–
348.16 K, 7961.9 kPa, Liquid	1149.49	–
348.16 K, 8025.7 kPa, Liquid	1150.51	–
348.16 K, 8087.3 kPa, Liquid	1151.69	–
348.16 K, 8149.7 kPa, Liquid	1152.67	–
348.16 K, 8214.5 kPa, Liquid	1153.77	–
348.16 K, 8278.5 kPa, Liquid	1154.85	–
348.16 K, 8341.3 kPa, Liquid	1155.78	–
348.16 K, 8406.3 kPa, Liquid	1157	–
348.16 K, 8469.9 kPa, Liquid	1157.97	–
348.16 K, 8531.4 kPa, Liquid	1158.94	–
348.16 K, 8594.4 kPa, Liquid	1159.97	–
348.16 K, 8659.7 kPa, Liquid	1160.84	–
348.16 K, 8722.7 kPa, Liquid	1161.97	–
348.16 K, 8786.5 kPa, Liquid	1163	–
348.16 K, 8848.4 kPa, Liquid	1163.83	–
348.16 K, 8911.7 kPa, Liquid	1164.85	–
348.16 K, 8974.2 kPa, Liquid	1165.76	–
348.16 K, 9039.8 kPa, Liquid	1166.77	–
348.16 K, 9105.6 kPa, Liquid	1167.83	–
348.16 K, 9170.3 kPa, Liquid	1168.8	–
348.16 K, 9233.7 kPa, Liquid	1169.7	–
348.16 K, 9295.2 kPa, Liquid	1170.74	–
348.16 K, 9362.9 kPa, Liquid	1171.78	–
348.16 K, 9399.4 kPa, Liquid	1172.31	–
348.16 K, 9466.9 kPa, Liquid	1173.32	–
348.16 K, 9534.3 kPa, Liquid	1174.34	–
348.16 K, 9571.4 kPa, Liquid	1174.89	–
348.16 K, 9609.6 kPa, Liquid	1175.39	–
348.16 K, 9656.8 kPa, Liquid	1176.01	–
348.16 K, 9696 kPa, Liquid	1176.45	–
348.16 K, 9739.9 kPa, Liquid	1177.06	–
348.16 K, 9788.9 kPa, Liquid	1175.42	–
348.16 K, 9833.1 kPa, Liquid	1175.9	–
348.16 K, 9877.8 kPa, Liquid	1176.32	–
348.16 K, 9944.3 kPa, Liquid	1179.73	–
348.16 K, 10016 kPa, Liquid	1180.6	–
348.22 K, Liquid, Closed cell (Static) method	–	2500.5
353.12 K, 6.6 kPa, Fluid (supercritical or subcritical phases)	0.343	–
353.12 K, 8.7 kPa, Fluid (supercritical or subcritical phases)	0.497	–
353.12 K, 11.7 kPa, Fluid (supercritical or subcritical phases)	0.619	–
353.12 K, 14.3 kPa, Fluid (supercritical or subcritical phases)	0.737	–
353.12 K, 16.6 kPa, Fluid (supercritical or subcritical phases)	0.793	–
353.12 K, 24.1 kPa, Fluid (supercritical or subcritical phases)	1.232	–
353.12 K, 26.7 kPa, Fluid (supercritical or subcritical phases)	1.395	–
353.12 K, 28.8 kPa, Fluid (supercritical or subcritical phases)	1.442	–
353.12 K, 32.7 kPa, Fluid (supercritical or subcritical phases)	1.694	–
353.12 K, 35.6 kPa, Fluid (supercritical or subcritical phases)	1.827	–
353.12 K, 38.2 kPa, Fluid (supercritical or subcritical phases)	1.904	–
353.12 K, 101.9 kPa, Fluid (supercritical or subcritical phases)	5.291	–
353.12 K, 111.4 kPa, Fluid (supercritical or subcritical phases)	5.735	–
353.12 K, 120.9 kPa, Fluid (supercritical or subcritical phases)	6.245	–
353.12 K, 129.7 kPa, Fluid (supercritical or subcritical phases)	6.695	–
353.12 K, 140.7 kPa, Fluid (supercritical or subcritical phases)	7.318	–
353.12 K, 151.2 kPa, Fluid (supercritical or subcritical phases)	7.845	–
353.12 K, 160.5 kPa, Fluid (supercritical or subcritical phases)	8.339	–
353.12 K, 169.9 kPa, Fluid (supercritical or subcritical phases)	8.914	–
353.12 K, 180.3 kPa, Fluid (supercritical or subcritical phases)	9.389	–
353.12 K, 189.6 kPa, Fluid (supercritical or subcritical phases)	9.904	–
353.12 K, 199 kPa, Fluid (supercritical or subcritical phases)	10.374	–
353.12 K, 209.3 kPa, Fluid (supercritical or subcritical phases)	11.01	–
353.12 K, 220.4 kPa, Fluid (supercritical or subcritical phases)	11.538	–
353.12 K, 230.8 kPa, Fluid (supercritical or subcritical phases)	12.133	–
353.12 K, 242.1 kPa, Fluid (supercritical or subcritical phases)	12.723	–
